From US11214803B2, “Modulators of YAP1 expression” (Ionis Pharmaceuticals, Inc., priority 2019, dated 2022)
Strand notation (5' to 3'): a small letter for the sugar, then the base; units joined by * are phosphorothioate-linked, units joined directly phosphodiester-linked; [ ] holds rarer units or linkages, { } end groups; capitals alone tell only the bases. k = constrained ethyl (cEt); [5mC] = 5-methylcytosine; d = 2'-deoxy (DNA)

System: Yap1 mRNA
Experiment: Dose-dependent inhibition of human Yap1 in A-431 cells (Example 8, 10,000 cells per well, RTS4814)
Format: cell-based
Settings: free uptake, approximately 48 hours, RTS4814; for Yap1 mRNA, % UTC: A-431 cells, 10,000 cells per well; for IC50: A-431 cells, linear regression on log/linear plot
Protocol: Modified oligonucleotides described in the studies above were tested at various doses in A-431 cells. Cultured A-431 cells at a density of 10,000 cells per well were treated using free uptake with modified oligonucleotides diluted to concentrations described in the tables below. After approximately 48 hours, Yap1 mRNA levels were measured as previously described using the Human Yap1 primer-probe set RTS4814. Yap1 mRNA levels were normalized to total RNA content, as measured by RIBOGREEN®. Results are presented in the tables below as percent control of the amount of Yap1 mRNA relative to untreated control cells (% UTC). IC50s were calculated using a linear regression on a log/linear plot of the data in excel.

Substance	Yap1 mRNA, % UTC (31.3 nM) [% UTC]	Yap1 mRNA, % UTC (125.0 nM) [% UTC]	Yap1 mRNA, % UTC (500.0 nM) [% UTC]	Yap1 mRNA, % UTC (2000.00 nM) [% UTC]	IC50 [µM]
1075842 (kG*kT*kA*dT*dT*dT*dA*dG*dG*dT*dA*d[5mC]*dT*k[5mC]*kA*kG; antisense) [compound 1075842]	27	7	3	3	< 0.02
1076295 (kG*kT*kA*dT*dA*dT*dT*dA*dG*dT*dG*d[5mC]*d[5mC]*k[5mC]*k[5mC]*k[5mC]; antisense) [compound 1076295]	55	17	5	3	< 0.02
1074817 (k[5mC]*kT*kG*dA*dA*dT*dA*dT*dT*dG*d[5mC]*d[5mC]*dA*k[5mC]*k[5mC]*k[5mC]; antisense) [compound 1074817]	50	22	13	11	< 0.02
1075749 (kA*kA*kT*dT*dA*dT*dG*dA*dA*dT*dG*dA*dT*kG*kG*kG; antisense) [compound 1075749]	46	22	7	4	< 0.02
1074851 (kA*kT*kT*dG*dT*dT*dA*dT*dG*dA*dT*dA*dG*kG*k[5mC]*kA; antisense) [compound 1074851]	51	19	9	7	< 0.02
1076293 (kG*k[5mC]*kT*dT*dA*dT*dT*dA*dT*dT*dG*dA*dG*kT*kT*kA; antisense) [compound 1076293]	49	18	6	5	< 0.02
1076000 (k[5mC]*k[5mC]*kT*dA*dA*dT*dA*dT*dG*dA*d[5mC]*dT*d[5mC]*k[5mC]*kT*kT; antisense) [compound 1076000]	71	31	10	5	0.1
1075233 (kG*kT*kA*dA*dT*dT*dT*dA*dT*d[5mC]*dA*dG*d[5mC]*k[5mC]*kA*kT; antisense) [compound 1075233]	45	12	5	3	< 0.02
1075242 (k[5mC]*kA*kG*dG*dG*dA*dT*dA*dA*dT*dT*dA*d[5mC]*kT*kA*kA; antisense) [compound 1075242]	71	39	18	12	0.1
1075689 (k[5mC]*kA*kA*d[5mC]*dT*dA*dT*dA*d[5mC]*dA*dA*dG*dG*k[5mC]*kA*kA; antisense) [compound 1075689]	97	59	19	8	0.2
1074795 (k[5mC]*k[5mC]*kA*dA*dA*dT*d[5mC]*dA*dA*dT*dG*dT*dG*k[5mC]*kT*k[5mC]; antisense) [compound 1074795]	38	14	7	5	< 0.02
1076456 (k[5mC]*kT*kT*dT*dA*dA*dA*dG*dT*dG*dT*dA*dT*kG*kT*k[5mC]) [compound 1076456]	43	14	5	3	< 0.02
1074368 (kG*kA*kT*dA*dG*dT*dA*dT*d[5mC]*dA*d[5mC]*d[5mC]*dT*kG*kT*kA; antisense) [compound 1074368]	67	34	15	10	0.1
1076516 (k[5mC]*kA*kT*dA*dA*dA*d[5mC]*dA*dT*dG*dA*dG*dT*kG*kG*kT; antisense) [compound 1076516]	64	39	18	13	0.1
1076416 (kA*k[5mC]*k[5mC]*dG*dA*dA*dA*dT*dG*dA*dT*dA*d[5mC]*kT*kG*kA; antisense) [compound 1076416]	67	33	13	7	0.1
1076426 (kA*k[5mC]*kG*dG*dG*dA*dA*dA*dA*dT*dT*d[5mC]*dT*kG*kG*kA; antisense) [compound 1076426]	68	46	24	18	0.1
1074753 (kT*kA*k[5mC]*dA*dT*dT*dA*dG*dG*dA*dA*d[5mC]*dA*kA*kG*kG; antisense) [compound 1074753]	42	10	6	4	< 0.02
1074723 (antisense kG*kG*kT*dA*dA*dA*dG*dG*dA*dA*dG*dA*dT*k[5mC]*kT*k[5mC]) [compound 1074723]	56	24	11	8	< 0.02
1076523 (kA*kT*kT*dT*dA*dT*dA*dT*d[5mC]*dA*dG*dG*dT*k[5mC]*kA*kA; antisense) [compound 1076523]	67	38	18	7	0.1
1074251 (antisense kT*k[5mC]*kT*dG*dA*dT*d[5mC]*dG*dA*dT*dG*dT*dG*kA*kT*kT) [compound 1074251]	73	33	16	10	0.1
1076549 (kG*kT*kG*d[5mC]*dA*dA*dA*dA*dT*dA*d[5mC]*d[5mC]*dT*kT*kT*kG; antisense) [compound 1076549]	53	24	10	6	< 0.02
1074563 (DNA kT*kG*kA*dA*dT*dT*d[5mC]*d[5mC]*dA*dA*dT*d[5mC]*dG*kA*kG*kA; antisense) [compound 1074563]	80	31	7	5	0.1
1076388 (antisense kG*kA*kA*dA*dT*dA*dT*dT*d[5mC]*dG*dA*dG*dA*kA*kG*kA) [compound 1076388]	87	40	13	6	0.1
